# PubChem BioAssay AID2060487 (Molecular Pharmacology Branch, DTP, NCI, 2025)
# Tested on: 997537-175-T-J1-PDC complex spheroid viability
# Test: Anticancer human tumor 997537-175-T-J1-PDC patient-derived colon adenocarcinoma cell line growth inhibition [GQUAD]
# Conditions: for viability, T/C: stronger effect = lower value
# From the text: DNA G-quadruplex Stabilizer Agents in Combinations in Complex Spheroids
# A high-throughput screen of multi-cell type tumor spheroids was designed to identify active combinations of DNA G-quadruplex stabilizer agents and targeted small molecules. Complex spheroids include a stromal component modeled by human endothelial cells (HUVEC) and fibroblasts modeled by human mesenchymal stem cells (MSCs). The concentration ranges selected for each drug and investigational agent were based upon clinically achievable concentrations if the clinical Cmax of the agent was known.
# Compounds. The drugs and investigational agents: pidnarulex (CX-5461; NSC782164), APTO-253 (NSC789042), BRACO-19 (NSC847499), peposertib (NSC802822), ceralasertib (NSC780249), elimusertib (NSC800525), camonsertib (NSC841442), AZD-1390 (NSC803789), olaparib (NSC753686), talazoparib (NSC767125), ART-558 (NSC835418), sotorasib (NSC818433), MRTX-1133 (NSC836407), SN-38 (NSC673596), topotecan (NSC609699), etoposide (NSC141540), doxorubicin (NSC123127), gemcitabine (NSC613327), 5-fluorouracil (NSC19893), paclitaxel (NSC125973), vemurafenib (NSC761431), panobinostat (NSC761190), R-306465 (JNJ-16241199; NSC773264), adavosertib (NSC754352), TP-3654 (NSC805149), carboplatin (NSC241240), KSQ-4279 (NSC840948), and staurosporine (NSC755774) were obtained from the National Cancer Institute (NCI) Developmental Therapeutics Program Chemical Repository (34). The FDA-approved anticancer drug set is available from the NCI Developmental Therapeutics Program. […] The stock solutions were prepared in dimethyl sulfoxide (DMSO, Sigma-Aldrich, St. Louis, MO, cat. D2650) at 800-fold the tested concentration and stored at -70 degrees C prior to their use. All drugs and investigational agents were tested over a range starting from a high concentration at or near the clinical Cmax and decreasing in half-log increments. If the clinical Cmax for an agent had not been determined, the highest concentration tested was 10 microM.
# 2.3 Cell Culture. All cells were maintained in an incubator at 37 degrees C and 5% CO2 with 95% humidity. The PDC lines were cultured according to standard operating procedures established by the NCI PDMR. All PDCs were thawed and cultured in Matrigel-coated flasks prepared with a working solution of 1X Ham's F-12 nutrient mix, without supplementation (Invitrogen, cat. 11765054), 100 U/mL penicillin-streptomycin (Invitrogen, cat. 15140122), and 2.5% Matrigel (Corning Inc., cat. 354248) for the first three passages. The 857933-349-R-J2-PDC line was cultured in 6C/Colon 1B media, which includes advanced DMEM/F-12 (Thermo Fisher Scientific, cat. 12634028), 10 mM HEPES (Thermo Fisher Scientific, cat. 15630080), 1X GlutaMAX supplement (Thermo Fisher Scientific, cat. 35050061), 0.1 mg/mL primocin (InvivoGen, cat. ant-pm-2), 10% defined fetal bovine serum, heat inactivated (HyClone Laboratories Inc., cat. SH30070.03HI), 50% L-WRN conditioned media (ATCC, cat. CRL-3276), 1.25 mM N-Acetyl-L-cysteine (Sigma-Aldrich, cat. A9165), 10 mM nicotinamide (Sigma-Aldrich, cat. N0636), 1X B-27 supplement (Thermo Fisher Scientific, cat. 17504044), 1X N-2 supplement (Thermo Fisher Scientific, cat. 17502048), 10 microM Y-27632 dihydrochloride (Tocris Bioscience, cat. 1254), and 50 ng/mL human EGF recombinant protein (Thermo Fisher Scientific, cat. PHG0311). The 485176-168-R4-J1-PDC line was cultured in Panc media, which includes all 6C/Colon 1B media components plus 100 ng/mL human FGF-10 (Thermo Fisher Scientific, cat. 100-26), 500 nM SB-431542 (Selleckchem, cat. S1067), and gastrin (Tocris, cat. 3006).
# […]
# [1] = curve of first compound, second compound 0.0316 µM
# [2] = curve of first compound, second compound 0.1 µM
# [3] = curve of first compound, second compound 0.316 µM
# [4] = curve of first compound, second compound 1 µM
# [5] = curve of first compound, second compound 3.16 µM
# [6] = curve of first compound, second compound 10 µM
# [7] = second compound 0.0316 µM, first compound 0.0316 µM
# [8] = second compound 0.0316 µM, first compound 0.1 µM
# [9] = second compound 0.0316 µM, first compound 0.316 µM
# [10] = second compound 0.0316 µM, first compound 1 µM
# [11] = second compound 0.0316 µM, first compound 3.16 µM
# [12] = second compound 0.0316 µM, first compound 10 µM
# [13] = second compound 0.1 µM, first compound 0.0316 µM
# [14] = second compound 0.1 µM, first compound 0.1 µM
# [15] = second compound 0.1 µM, first compound 0.316 µM
# [16] = second compound 0.1 µM, first compound 1 µM
# [17] = second compound 0.1 µM, first compound 3.16 µM
# [18] = second compound 0.1 µM, first compound 10 µM
# [19] = second compound 0.316 µM, first compound 0.0316 µM
# [20] = second compound 0.316 µM, first compound 0.1 µM
# [21] = second compound 0.316 µM, first compound 0.316 µM
# [22] = second compound 0.316 µM, first compound 1 µM
# [23] = second compound 0.316 µM, first compound 3.16 µM
# [24] = second compound 0.316 µM, first compound 10 µM
# [25] = second compound 1 µM, first compound 0.0316 µM
# [26] = second compound 1 µM, first compound 0.1 µM
# [27] = second compound 1 µM, first compound 0.316 µM
# [28] = second compound 1 µM, first compound 1 µM
# [29] = second compound 1 µM, first compound 3.16 µM
# [30] = second compound 1 µM, first compound 10 µM
# [31] = second compound 3.16 µM, first compound 0.0316 µM
# [32] = second compound 3.16 µM, first compound 0.1 µM
# [33] = second compound 3.16 µM, first compound 0.316 µM
# [34] = second compound 3.16 µM, first compound 1 µM
# [35] = second compound 3.16 µM, first compound 3.16 µM
# [36] = second compound 3.16 µM, first compound 10 µM
# [37] = second compound 10 µM, first compound 0.0316 µM
# [38] = second compound 10 µM, first compound 0.1 µM
# [39] = second compound 10 µM, first compound 0.316 µM
# [40] = second compound 10 µM, first compound 1 µM
# [41] = second compound 10 µM, first compound 3.16 µM
# [42] = second compound 10 µM, first compound 10 µM
# 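Note: spheroids exposed to the agents for 7 days.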
# 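Throughout, for viability, T/C: 100% = DMSO vehicle control viability.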
compound,measurement,setting,value
CC(C)(O)C1CCC(Nc2ccc3ncc(-c4cccc(C(F)(F)F)c4)n3n2)CC1 (stereo unspecified) + Cc1[nH]c2ccc(F)cc2c1-c1nc2c3cccnc3c3ncccc3c2[nH]1,IC50,[1],> 10000 nM
same,IC50,[2],> 10000 nM
same,IC50,[3],> 10000 nM
same,IC50,[4],> 10000 nM
same,IC50,[5],> 10000 nM
same,IC50,[6],> 10000 nM
same,"viability, T/C",[7],114%
same,"viability, T/C",[8],107%
same,"viability, T/C",[9],103%
same,"viability, T/C",[10],108%
same,"viability, T/C",[11],107%
same,"viability, T/C",[12],114%
same,"viability, T/C",[13],120%
same,"viability, T/C",[14],103%
same,"viability, T/C",[15],97.5%
same,"viability, T/C",[16],103%
same,"viability, T/C",[17],99.3%
same,"viability, T/C",[18],105%
same,"viability, T/C",[19],101%
same,"viability, T/C",[20],105%
same,"viability, T/C",[21],108%
same,"viability, T/C",[22],101%
same,"viability, T/C",[23],104%
same,"viability, T/C",[24],99.4%
same,"viability, T/C",[25],115%
same,"viability, T/C",[26],99%
same,"viability, T/C",[27],101%
same,"viability, T/C",[28],101%
same,"viability, T/C",[29],97.7%
same,"viability, T/C",[30],90.5%
same,"viability, T/C",[31],94.9%
same,"viability, T/C",[32],97.2%
same,"viability, T/C",[33],93.5%
same,"viability, T/C",[34],90.7%
same,"viability, T/C",[35],104%
same,"viability, T/C",[36],96.9%
same,"viability, T/C",[37],98.1%
same,"viability, T/C",[38],80.3%
same,"viability, T/C",[39],88.9%
same,"viability, T/C",[40],97.4%
same,"viability, T/C",[41],78.3%
same,"viability, T/C",[42],79.6%
CN(C)c1ccc(Nc2c3ccc(NC(=O)CCN4CCCC4)cc3nc3cc(NC(=O)CCN4CCCC4)ccc23)cc1,"viability, T/C",compound 0.316 µM,97.1% [middle of 12 runs]
same,IC50,"compound alone, run of 04/22/2024",> 10000 nM
CC(=O)O[C@H]1C(=O)[C@@]2(C)[C@H]([C@H](OC(=O)c3ccccc3)[C@]3(O)C[C@H](OC(=O)[C@H](O)[C@@H](NC(=O)c4ccccc4)c4ccccc4)C(C)=C1C3(C)C)[C@]1(OC(C)=O)CO[C@@H]1C[C@@H]2O + CN(C)c1ccc(Nc2c3ccc(NC(=O)CCN4CCCC4)cc3nc3cc(NC(=O)CCN4CCCC4)ccc23)cc1,IC50,[1],79.1 nM
same,IC50,[2],67.7 nM
same,IC50,[3],74.6 nM
same,IC50,[4],53.1 nM
same,IC50,[5],< 31.6 nM
same,IC50,[6],59 nM
same,"viability, T/C",[7],75.2%
same,"viability, T/C",[8],43.6%
same,"viability, T/C",[9],28.1%
same,"viability, T/C",[10],21.5%
same,"viability, T/C",[11],32.2%
same,"viability, T/C",[12],29.4%
same,"viability, T/C",[13],67.3%
same,"viability, T/C",[14],40.9%
same,"viability, T/C",[15],36.9%
same,"viability, T/C",[16],21.1%
same,"viability, T/C",[17],30.7%
same,"viability, T/C",[18],34.9%
same,"viability, T/C",[19],78.3%
same,"viability, T/C",[20],36.5%
same,"viability, T/C",[21],34.5%
same,"viability, T/C",[22],19.4%
same,"viability, T/C",[23],16.6%
same,"viability, T/C",[24],21.1%
same,"viability, T/C",[25],71.6%
same,"viability, T/C",[26],9.98%
same,"viability, T/C",[27],35.1%
same,"viability, T/C",[28],18.1%
same,"viability, T/C",[29],29.6%
same,"viability, T/C",[30],24.8%
same,"viability, T/C",[31],37.7%
same,"viability, T/C",[32],45.5%
same,"viability, T/C",[33],31.9%
same,"viability, T/C",[34],18.1%
same,"viability, T/C",[35],20.1%
same,"viability, T/C",[36],41.8%
same,"viability, T/C",[37],72%
same,"viability, T/C",[38],28.8%
same,"viability, T/C",[39],34.4%
same,"viability, T/C",[40],35.7%
same,"viability, T/C",[41],29.8%
same,"viability, T/C",[42],27.3%
